Results taken from patent US11708348B2, “Protease inhibitors for treatment of coronavirus infections” (The Scripps Research Institute, priority 2021, dated 2023).
Where two headings read alike, the source gives them in different places.

System: SARS-CoV-2 strain USA-WA1/2020
Assay: microbe, parasite or virus in culture
Format: cell-based
Details: Severe acute respiratory syndrome coronavirus 2, HeLa-ACE2, 24 h, HeLa-ACE2 cells, SARS-CoV-2 infection, 24 h, read-out: EC50, uM (Hela)

Compound	EC50 (class symbols)	EC50 (cells given as a bound)
O=C(N[C@@H](CC1CC1)C(=O)N[C@@H](C[C@@H]1CCNC1=O)C(=O)COC(F)(F)F)c1cc(-c2ccccc2F)on1 [Compound 160, N-((S)-3-cyclopropyl-1-oxo-1-(((S)-3-oxo-1-((S)-2-oxopyrrolidin-3-yl)-4-(trifluoromethoxy)butan-2-yl)amino)propan-2-yl)-5-(2-fluorophenyl)isoxazole-3-carboxamide]	< 0.05 µM	
O=C(N[C@@H](CC1CC1)C(=O)N[C@@H](C[C@@H]1CCNC1=O)C(=O)COC(F)(F)F)c1cc2cc(F)ccc2[nH]1 [Compound 161, N-((S)-3-cyclopropyl-1-oxo-1-(((S)-3-oxo-1-((S)-2-oxopyrrolidin-3-yl)-4-(trifluoromethoxy)butan-2-yl)amino)propan-2-yl)-5-fluoro-1H-indole-2-carboxamide]	< 0.05 µM	
COc1cccc2[nH]c(C(=O)N[C@@H](CC(C)C)C(=O)N[C@@H](C[C@@H]3CCNC3=O)C(=O)COCC(F)(F)F)cc12 [Compound 162, 4-methoxy-N-((S)-4-methyl-1-oxo-1-(((S)-3-oxo-1-((S)-2-oxopyrrolidin-3-yl)-4-(2,2,2-trifluoroethoxy)butan-2-yl)amino)pentan-2-yl)-1H-indole-2-carboxamide]		> 1 µM
CC(C)C[C@H](NC(=O)C(=O)NC1CCCCC1)C(=O)N[C@@H](C[C@@H]1CCNC1=O)C(=O)COC(F)(F)F [Compound 163, N1-cyclohexyl-N2-((S)-4-methyl-1-oxo-1-(((S)-3-oxo-1-((S)-2-oxopyrrolidin-3-yl)-4-(trifluoromethoxy)butan-2-yl)amino)pentan-2-yl)oxalamide]	< 0.05 µM	
COc1cccc(OC)c1NC(=O)C(=O)N[C@@H](CC(C)C)C(=O)N[C@@H](C[C@@H]1CCNC1=O)C(=O)COC(F)(F)F [Compound 164, N1-(2,6-dimethoxyphenyl)-N2-((S)-4-methyl-1-oxo-1-(((S)-3-oxo-1-((S)-2-oxopyrrolidin-3-yl)-4-(trifluoromethoxy)butan-2-yl)amino)pentan-2-yl)oxalamide]	< 0.05 µM	
COc1cccc(C)c1NC(=O)C(=O)N[C@@H](CC(C)C)C(=O)N[C@@H](C[C@@H]1CCNC1=O)C(=O)COC(F)(F)F [Compound 165, N1-(2-methoxy-6-methylphenyl)-N2-((S)-4-methyl-1-oxo-1-(((S)-3-oxo-1-((S)-2-oxopyrrolidin-3-yl)-4-(trifluoromethoxy)butan-2-yl)amino)pentan-2-yl)oxalamide]	< 0.05 µM	
COc1cccc(F)c1NC(=O)C(=O)N[C@@H](CC(C)C)C(=O)N[C@@H](C[C@@H]1CCNC1=O)C(=O)COC(F)(F)F [Compound 166, N1-(2-fluoro-6-methoxyphenyl)-N2-((S)-4-methyl-1-oxo-1-(((S)-3-oxo-1-((S)-2-oxopyrrolidin-3-yl)-4-(trifluoromethoxy)butan-2-yl)amino)pentan-2-yl)oxalamide]	< 0.05 µM	
CCc1cccc(CC)c1NC(=O)C(=O)N[C@@H](CC(C)C)C(=O)N[C@@H](C[C@@H]1CCNC1=O)C(=O)COC(F)(F)F [Compound 167, N1-(2,6-diethylphenyl)-N2-((S)-4-methyl-1-oxo-1-(((S)-3-oxo-1-((S)-2-oxopyrrolidin-3-yl)-4-(trifluoromethoxy)butan-2-yl)amino)pentan-2-yl)oxalamide]	< 0.05 µM	
CC(C)C[C@H](NC(=O)c1ccc2c(c1)OCO2)C(=O)N[C@@H](C[C@@H]1CCNC1=O)C(=O)COC(F)(F)F [Compound 168, N-((S)-4-methyl-1-oxo-1-(((S)-3-oxo-1-((S)-2-oxopyrrolidin-3-yl)-4-(trifluoromethoxy)butan-2-yl)amino)pentan-2-yl)benzo[d][l,3]dioxole-5-carboxamide]	0.05 to 0.2 µM	
CC(C)C[C@H](NC(=O)C(=O)NC1CCCCC1(F)F)C(=O)N[C@@H](C[C@@H]1CCNC1=O)C(=O)COC(F)(F)F (stereo partly drawn) [Compound 169, N1-(2,2-difluorocyclohexyl)-N2-((S)-4-methyl-1-oxo-1-(((S)-3-oxo-1-((S)-2-oxopyrrolidin-3-yl)-4-(trifluoromethoxy)butan-2-yl)amino)pentan-2-yl)oxalamide]	< 0.05 µM	
CC(C)C[C@H](NC(=O)C(=O)Nc1c(OC(C)C)cccc1OC(C)C)C(=O)N[C@@H](C[C@@H]1CCNC1=O)C(=O)COC(F)(F)F [Compound 170, Nl-(2,6-diisopropoxyphenyl)-N2-((S)-4-methyl-1-oxo-1-(((S)-3-oxo-1-((S)-2-oxopyrrolidin-3-yl)-4-(trifluoromethoxy)butan-2-yl)amino)pentan-2-yl)oxalamide]	< 0.05 µM	
CC(C)C[C@H](NC(=O)c1cc(-c2ccccc2F)on1)C(=O)N[C@@H](C[C@@H]1CCNC1=O)C(=O)COC(F)(F)F [Compound 171, 5-(2-fluorophenyl)-N-((S)-4-methyl-1-oxo-1-(((S)-3-oxo-1-((S)-2-oxopyrrolidin-3-yl)-4-(trifluoromethoxy)butan-2-yl)amino)pentan-2-yl)isoxazole-3-carboxamide]	< 0.05 µM	
CC(C)(C)C[C@H](NC(=O)C(=O)NC(C)(C)C)C(=O)N[C@@H](C[C@@H]1CCNC1=O)C(=O)COC(F)(F)F [Compound 172, N1-(tert-butyl)-N2-((S)-4,4-dimethyl-1-oxo-1-(((S)-3-oxo-1-((S)-2-oxopyrrolidin-3-yl)-4-(trifluoromethoxy)butan-2-yl)amino)pentan-2-yl)oxalamide]	< 0.05 µM	
CC(C)(C)C[C@H](NC(=O)C(=O)Nc1ccccc1C(C)(C)C)C(=O)N[C@@H](C[C@@H]1CCNC1=O)C(=O)COC(F)(F)F [Compound 173, N1-(2-(tert-butyl)phenyl)-N2-((S)-4,4-dimethyl-1-oxo-1-(((S)-3-oxo-1-((S)-2-oxopyrrolidin-3-yl)-4-(trifluoromethoxy)butan-2-yl)amino)pentan-2-yl)oxalamide]	< 0.05 µM	
CC(C)C[C@H](NC(=O)C(=O)NC1CC1)C(=O)N[C@@H](C[C@@H]1CCNC1=O)C(=O)COC(F)(F)F [Compound 174, N1-cycl opropyl-N2-((S)-4-methyl-1-oxo-1-(((S)-3-oxo-1-((S)-2-oxopyrrolidin-3-yl)-4-(trifluoromethoxy)butan-2-yl)amino)pentan-2-yl)oxalamide]	< 0.05 µM	
CC(C)C[C@H](NC(=O)C(=O)Nc1ccccc1F)C(=O)N[C@@H](C[C@@H]1CCNC1=O)C(=O)COC(C(F)F)C(F)F [Compound 175, N1-(2-fluorophenyl)-N2-((S)-4-methyl-1-oxo-1-(((S)-3-oxo-1-((S)-2-oxopyrrolidin-3-yl)-4-((1,1,3,3-tetrafluoropropan-2-yl)oxy)butan-2-yl)amino)pentan-2-yl)oxalamide]		> 1 µM
O=C(NC1CC(F)(F)C1)C(=O)N[C@@H](CC1CC1)C(=O)N[C@@H](C[C@@H]1CCNC1=O)C(=O)COC(F)(F)F [Compound 176, N1-((S)-3-cyclopropyl-1-oxo-1-(((S)-3-oxo-1-((S)-2-oxopyrrolidin-3-yl)-4-(trifluoromethoxy)butan-2-yl)amino)propan-2-yl)-N2-(3,3-difluorocyclobutyl)-oxalamide]	< 0.05 µM	
COCc1ccccc1NC(=O)C(=O)N[C@@H](CC(C)C)C(=O)N[C@@H](C[C@@H]1CCNC1=O)C(=O)COC(F)(F)F [Compound 177, N1-(2-(methoxymethyl)phenyl)-N2-((S)-4-methyl-1-oxo-1-(((S)-3-oxo-1-((S)-2-oxopyrrolidin-3-yl)-4-(trifluoromethoxy)butan-2-yl)amino)pentan-2-yl)oxalamide]	< 0.05 µM	
COc1cccc2[nH]c(C(=O)N[C@@H](CC(C)C)C(=O)N[C@@H](C[C@@H]3CCNC3=O)C(=O)COC(C(F)F)C(F)F)cc12 [Compound 178, 4-methoxy-N-((S)-4-methyl-1-oxo-1-(((S)-3-oxo-1-((S)-2-oxopyrrolidin-3-yl)-4-((1,1,3,3-tetrafluoropropan-2-yl)oxy)butan-2-yl)amino)pentan-2-yl)-1H-indole-2-carboxamide]		> 1 µM
CC(C)(C)C[C@H](NC(=O)C(=O)NC1CC(F)(F)C1)C(=O)N[C@@H](C[C@@H]1CCNC1=O)C(=O)COC(F)(F)F [Compound 179, Nl-(3,3-difluorocyclobutyl)-N2-((S)-4,4-dimethyl-1-oxo-1-(((S)-3-oxo-1-((S)-2-oxopyrrolidin-3-yl)-4-(trifluoromethoxy)butan-2-yl)amino)pentan-2-yl)oxalamide]	< 0.05 µM	
CC(C)C[C@H](NC(=O)C(=O)NC(C)(C)C)C(=O)N[C@@H](C[C@@H]1CCNC1=O)C(=O)COC(F)(F)F [Compound 180, N1-(tert-butyl)-N2-((S)-4-methyl-1-oxo-1-(((S)-3-oxo-1-((S)-2-oxopyrrolidin-3-yl)-4-(trifluoromethoxy)butan-2-yl)amino)pentan-2-yl)oxalamide]	< 0.05 µM	
CC(C)(C)NC(=O)C(=O)NC(CC1CCOCC1)C(=O)N[C@@H](C[C@@H]1CCNC1=O)C(=O)COC(F)(F)F (stereo partly drawn) [Compound 181, N1-(tert-butyl)-N2-(l-oxo-1-(((S)-3-oxo-l-((S)-2-oxopyrrolidin-3-yl)-4-(trifluoromethoxy)butan-2-yl)amino)-3-(tetrahydro-2H-pyran-4-yl)propan-2-yl)oxalamide]	0.2 to 0.5 µM	
O=C(NC1CC(F)(F)C1)C(=O)N[C@@H](Cc1ccccc1)C(=O)N[C@@H](C[C@@H]1CCNC1=O)C(=O)COC(F)(F)F [Compound 182, N1-(3,3-difluorocyclobutyl)-N2-((S)-1-oxo-1-(((S)-3-oxo-1-((S)-2-oxopyrrolidin-3-yl)-4-(trifluoromethoxy)butan-2-yl)amino)-3-phenylpropan-2-yl)oxalamide]	< 0.05 µM	
O=C(NC(CC1CCOCC1)C(=O)N[C@@H](C[C@@H]1CCNC1=O)C(=O)COC(F)(F)F)c1cc(-c2ccccc2F)on1 (stereo partly drawn) [Compound 183, 5-(2-fluorophenyl)-N-(1-oxo-1-(((S)-3-oxo-1-((S)-2-oxopyrrolidin-3-yl)-4-(trifluoromethoxy)butan-2-yl)amino)-3-(tetrahydro-2H-pyran-4-yl)propan-2-yl)isoxazole-3-carboxamide]	< 0.05 µM	
